The text below walks through data of ChEMBL document CHEMBL1147457, “Thiourea inhibitors of herpes viruses. Part 2: N-Benzyl-N'-arylthiourea inhibitors of CMV” (Bioorg Med Chem Lett, 2004).

Assay [1] can be described thus: Inhibitory activity against MTS host cell toxicity was determined. The assay is classed as functional.
For a further assay, the system named is Human alphaherpesvirus 3. As to the kind of experiment: Inhibitory activity against varicella zoster virus was determined. The assay is classed as functional, organism-based.
In a further assay the test system is Human alphaherpesvirus 2. Briefly: Inhibitory activity against herpes simplex virus was determined. The assay is classed as functional, organism-based.
Assay [2] concerns Respiratory syncytial virus. Briefly: Inhibitory activity against respiratory syncytial virus was determined. Conditions: human respiratory syncytial virus. The assay is classed as functional, organism-based.
In a further assay the test system is Cytomegalovirus. Briefly: Inhibitory activity against cytomegalo virus was determined. Conditions: Human betaherpesvirus 5. The assay is classed as functional, organism-based.

A word on the IC50: it is the concentration at which inhibition is half-maximal. A higher IC50 goes with lower potency. As to `CC(C)(/N=C(\S)Nc1ccc(NC(=O)c2csnn2)cc1)c1cc(C(F)(F)F)cc(C(F)(F)F)c1`, the IC50 was greater than 7.5 µM in assay [1]; greater than 3.7 µM in the assay on Human alphaherpesvirus 3; greater than 5 µM in the assay on Human alphaherpesvirus 2; greater than 5 µM in assay [2]; 0.004 µM in the assay on Cytomegalovirus.
As to `CCC(/N=C(\S)Nc1ccc(NC(=O)c2cscn2)cc1)c1cc(C(F)(F)F)cc(C(F)(F)F)c1` (configuration not stated), the IC50 in assay [1] is greater than 7.5 µM; in the assay with Human alphaherpesvirus 3 it was greater than 3.7 µM; in the assay on Human alphaherpesvirus 2 it was 4.1 µM; in assay [2] it was greater than 5 µM; in the assay on Cytomegalovirus it was 0.0002 µM.
Regarding `C[C@H](/N=C(\S)Nc1ccc(NC(=O)c2csnn2)cc1)c1cc(C(F)(F)F)cc(C(F)(F)F)c1`, the 50% inhibitory concentration (IC50) in assay [1] is greater than 7.5 µM; with Human alphaherpesvirus 3, greater than 3.7 µM; in the assay with Human alphaherpesvirus 2, greater than 5 µM; in assay [2], greater than 5 µM; in the assay with Cytomegalovirus it was 0.003 µM.
`CCC(/N=C(\S)Nc1ccc(NC(=O)c2csnn2)cc1)c1cc(C(F)(F)F)cc(C(F)(F)F)c1` (configuration not stated): the IC50 in assay [1] is greater than 7.5 µM; in the assay with Human alphaherpesvirus 3, greater than 3.7 µM; in the assay with Human alphaherpesvirus 2, 5 µM; in assay [2], greater than 5 µM; in the assay on Cytomegalovirus, 0.001 µM.
In the same order, the values of `CC(/N=C(\S)Nc1ccc(NC(=O)c2csnn2)cc1)c1cc(C(F)(F)F)cc(C(F)(F)F)c1` (configuration not stated) are greater than 7.5 µM, greater than 3.7 µM, greater than 5 µM, greater than 5 µM and 0.003 µM.
In the case of `O=C(Nc1ccc(N/C(S)=N/Cc2cc(C(F)(F)F)cc(C(F)(F)F)c2)cc1)c1csnn1`, the IC50 in the assay on Human alphaherpesvirus 3 was greater than 5 µM; in the assay with Human alphaherpesvirus 2, greater than 5 µM; in assay [2] it was greater than 5 µM; in the assay on Cytomegalovirus, 0.002 µM.
As for `O=C(Nc1ccc(N/C(S)=N/Cc2cc(C(F)(F)F)cc(C(F)(F)F)c2)cn1)c1csnn1`, the IC50 was greater than 7.5 µM in assay [1]; greater than 3.7 µM in the assay on Human alphaherpesvirus 3; greater than 5 µM in the assay with Human alphaherpesvirus 2; greater than 5 µM in assay [2]; 0.0044 µM with Cytomegalovirus.
Consider `CCCC(/N=C(\S)Nc1ccc(NC(=O)c2csnn2)cc1)c1cc(C(F)(F)F)cc(C(F)(F)F)c1` (configuration not stated), for which the IC50 was greater than 7.5 µM in assay [1]; greater than 3.7 µM in the assay with Human alphaherpesvirus 3; greater than 5 µM with Human alphaherpesvirus 2; greater than 5 µM in assay [2]; 0.001 µM in the assay on Cytomegalovirus.
Regarding `O=C(Nc1ccc(/N=C(\S)Nc2cc(C(F)(F)F)cc(C(F)(F)F)c2)cc1)c1csnn1`, the IC50 with Human alphaherpesvirus 3 was greater than 5 µM; with Human alphaherpesvirus 2 it was greater than 5 µM; in assay [2], 5 µM; with Cytomegalovirus, 0.037 µM.
Regarding `C[C@H](/N=C(\S)Nc1ccc(NC(=O)c2cscn2)cc1)c1cc(C(F)(F)F)cc(C(F)(F)F)c1`, the IC50 in assay [1] is greater than 7.5 µM; in the assay on Human alphaherpesvirus 3, greater than 3.7 µM; in the assay on Human alphaherpesvirus 2, greater than 5 µM; in assay [2] it was greater than 5 µM; with Cytomegalovirus, 0.0006 µM.
Take `O=C(Nc1ccc(N/C(S)=N/C(c2ccccc2)c2cc(C(F)(F)F)cc(C(F)(F)F)c2)cc1)c1csnn1` (configuration not stated): the IC50 in assay [1] is greater than 7.5 µM; in the assay with Human alphaherpesvirus 3, greater than 3.7 µM; with Human alphaherpesvirus 2 it was greater than 5 µM; in assay [2] it was greater than 5 µM; in the assay with Cytomegalovirus it was 0.002 µM.
On to `C[C@H](/N=C(\S)Nc1ccc(NC(=O)c2cscn2)nc1)c1cc(C(F)(F)F)cc(C(F)(F)F)c1`, for which the IC50 in assay [1] was greater than 7.5 µM; with Human alphaherpesvirus 3 it was greater than 3.7 µM; in the assay with Human alphaherpesvirus 2, greater than 5 µM; in assay [2], greater than 5 µM; with Cytomegalovirus, 0.002 µM.
`C[C@@H](/N=C(\S)Nc1ccc(NC(=O)c2cscn2)nc1)c1cc(C(F)(F)F)cc(C(F)(F)F)c1`: the IC50 in assay [1] was greater than 7.5 µM; in the assay with Human alphaherpesvirus 3, greater than 3.7 µM; in the assay on Human alphaherpesvirus 2, greater than 5 µM; in assay [2] it was 1 µM; with Cytomegalovirus it was 0.0028 µM.
In the same order, the values of `C[C@H](/N=C(\S)Nc1ccc(NC(=O)c2csnn2)nc1)c1cc(C(F)(F)F)cc(C(F)(F)F)c1` are 8 µM, greater than 3.7 µM, 4.1 µM, greater than 5 µM and 0.003 µM.
The like results for `C[C@@H](/N=C(\S)Nc1ccc(NC(=O)c2cscn2)cc1)c1cc(C(F)(F)F)cc(C(F)(F)F)c1` were, in that order, greater than 7.5 µM, greater than 3.7 µM, greater than 5 µM, 2 µM and 0.0015 µM.
Regarding `O=C(Nc1ccc(/N=C(\S)Nc2cc(C(F)(F)F)cc(C(F)(F)F)c2)cc1)c1cscn1`, the 50% inhibitory concentration (IC50) in the assay on Human alphaherpesvirus 3 is greater than 5 µM; with Human alphaherpesvirus 2, greater than 5 µM; in assay [2], greater than 5 µM; with Cytomegalovirus it was 0.016 µM.
